According to patent US20240114940A1, “SACCHARIDE COMPOSITIONS HAVING SUCROSE-LIKE CHARACTERISTICS AND RELATED METHODS” (priority 2021, published 2024):

Experiments:
Format in all cases: physicochemical
[1] = pH and absorbance at 420 nm of closed-system heated solutions
[2] = Breakdown products by GCMS without an amino acid present; conditions: pH 7, 160° C., 10 min
Procedure: (§1) Controls were prepared addition of 1 mL of pH 7 buffer to the amino acids. The samples were rapidly heated to 160° C. and held at this temperature for 10 min. Samples were rapidly cooled afterwards, and absorbance at 500 nm was measured for each reaction mixture. Volatiles were analysed using gas chromatography mass spectrometry (GCMS) analysis. An Agilent Technologies 5975B Inert XL MSD gas chromatography, single quadruple mass spectrometer was used for analysis of volatiles. Samples were added to separate GCMS headspace vials and weighed. 0.03 g of 0.01% 3-heptanone in water was added and the vial was sealed for GCMS solid phase micro extraction (SPME) analysis. Samples were analysed in a randomized order. Samples were incubated and agitated at 250 RPM, at 60° C. for 15 min prior to SPME analysis of volatiles. The SPME fibre (50/30 DVB/CAR/PDMS, 23 Ga) extracted for 10 min, then thermally desorbed at 250° C. for 5 min. A 30 m×0.25 mm×0.25 μm HP-5MS column was used (Phenomenex, UK). Oven temperature settings: 31° C.-5 min, 5° C./min to 150° C., 30° C./min to 240° C. Inlet settings: 250° C., pressure 10.4 psi, flow 11.2 mL/min, split ratio 7:1. MS operated in full scan mode from 40 to 400 m/z with a scan time of 0.2s. The peak area of the aroma compounds was compared to the peak of the internal standard 3-heptanone and corrected for the weight of the sample.
(§2) The concentration of the different classes of Maillard reaction breakdown products is presented in Tables 9B-E. The same data as Tables 9B-E is also presented in FIG. 27. Concentrations are in parts per billion of the difference non-enzymatic breakdown products for the different compositions at 160° C. analysed by GCMS.

[3] = Breakdown products by GCMS after Maillard reaction in the presence of Histidine; conditions: 160° C.
Procedure: as §1, §2

[4] = Heating in a closed system (sealed microwave reactor tubes, 2 min), saccharides by ion-exchange chromatography; conditions: acidic conditions (pH 3 buffer), 177° C.
[5] = Breakdown products by GCMS after Maillard reaction in the presence of Leucine; conditions: 160° C.
Procedure: as §1, §2

[6] = Carbonyls/ketones, Maillard reaction in the presence of Leucine, GCMS
[7] = Furans, Maillard reaction in the presence of Leucine, GCMS
[8] = Pyrazines, Maillard reaction in the presence of Leucine, GCMS

A420 after heating to 177° C. ([1]; samples labelled as pH 3): 0.089
A420 before heating ([1]; samples labelled as pH 3): 0.082
pH after heating to 177° C. ([1]; samples labelled as pH 3): 3.08
pH before heating ([1]; samples labelled as pH 3): 3
A420 after heating to 110° C. ([1]; samples labelled as pH 7): 0.086
A420 before heating ([1]; samples labelled as pH 7): 0.115
pH after heating to 110° C. ([1]; samples labelled as pH 7): 6.88
pH after heating to 177° C. ([1]; samples labelled as pH 7): 6.84
pH before heating ([1]; samples labelled as pH 7): 6.78
A420 before heating ([1]; samples labelled as pH 9): 0.087
pH after heating 177° C. ([1]; samples labelled as pH 9): 8.14
pH before heating ([1]; samples labelled as pH 9): 8.76
Concentration of 2-Butanone [2]: 178.52 ppb
Concentration of 2-Propanone, 1-hydroxy- [2]: 96.48 ppb
Concentration of 5-methyl furfural [2]: 0 ppb
Concentration of Diacetyl (2,3-Butanedione) [2]: 245.45 ppb
Concentration of Furan, 2-methyl- [2]: 0 ppb
Concentration of Furfural [2]: 1.42 ppb
2-Butanone concentration ([3]; Carbonyls/ketones): 1.44 ppb
2-Propanone, 1-hydroxy- concentration ([3]; Carbonyls/ketones): 14.57 ppb
Diacetyl (2,3-Butanedione) concentration ([3]; Carbonyls/ketones): 1.62 ppb
Furan, 2-methyl- concentration ([3]; Furans): 0 ppb
Furfural concentration ([3]; Furans): 0.03 ppb
Pyrazine, 2,5-diethyl- concentration ([3]; Pyrazines): 0.48 ppb
Pyrazine, 2,5-dimethyl- concentration ([3]; Pyrazines): 175.23 ppb
Pyrazine, 2-ethyl-5-methyl- concentration ([3]; Pyrazines): 34.95 ppb
Pyrazine, ethyl- concentration ([3]; Pyrazines): 0.14 ppb
Pyrazine, methyl- concentration ([3]; Pyrazines): 0 ppb
sucrose degraded [4]: around 85%
2-Butanone concentration [5, 6]: 9.73 ppb
2-Propanone, 1-hydroxy- concentration [5, 6]: 45.73 ppb
Diacetyl (2,3-Butanedione) concentration [5, 6]: 41.79 ppb
Furan, 2-methyl- concentration [5, 7]: 0.42 ppb
Furfural concentration [5, 7]: 0.16 ppb
Pyrazine, 2,5-diethyl- concentration [5, 8]: 24.28 ppb
Pyrazine, 2,5-dimethyl- concentration [5, 8]: 2111.75 ppb
Pyrazine, 2-ethyl-5-methyl- concentration [5, 8]: 554.43 ppb
Pyrazine, ethyl- concentration [5, 8]: 8.8 ppb
Pyrazine, methyl- concentration [5, 8]: 20.49 ppb
Isovaleraldehyde (Butanal, 3-methyl-) concentration ([5]; Strecker aldehydes, Maillard reaction in the presence of Leucine, GCMS): 3412.25 ppb
Isovaleraldehyde concentration ([5]; with leucine): 3400 ppb
SMILES: OC[C@H]1O[C@@](CO)(O[C@H]2O[C@H](CO)[C@@H](O)[C@H](O)[C@H]2O)[C@@H](O)[C@@H]1O [Sucrose]
